Assay results: a melting point compilation (Tetko et al.; mined from patent text by program, amines drawn as free bases though some values may be those of a salt)

melting point [°C]	SMILES
194 to 196	Cc1nn(-c2c(Cl)cc(C(F)(F)F)cc2Cl)c(N)c1C#N
178	O=C(Nc1nc2ccccc2o1)C(Cc1ccc(F)cc1)c1ccc(F)cc1F (centres undefined)
133 to 134	O=C(Nc1cccc(-n2nc(C(F)(F)F)cc2C(F)(F)F)c1)c1ccc(F)cc1F
169 to 171	NC(=O)c1c(C(F)(F)F)nn(-c2c(Cl)cc(C(F)(F)F)cc2Cl)c1N
190 to 210	Clc1ccc(-c2cc3ncnc(Nc4ccc5[nH]ccc5c4)c3s2)cc1
196 to 198	CCn1c(=O)ccc2cnc(Nc3ccc(OC)c(F)c3)nc21
75	Cc1ccccc1C1(n2ccnc2)c2ccccc2-c2sccc21 (centres undefined)
171 to 172	CCc1cc2c(cc1Cl)C=C(C(=O)O)C(C(F)(F)F)O2 (centres undefined)
> 250	CC(CC1CNc2nc(N)nc(O)c2C1)c1ccc(C(=O)N[C@@H](CCC(=O)O)C(=O)O)cc1 (some centres undefined)
170 to 171	Cc1cccc(Nc2ccc(Nc3ncnc4cc(-c5ccccc5)sc34)cc2)c1
166 to 167	O=c1[nH]ccn1-c1ccc(F)cc1
50	Cc1ccnc(-c2ccc(C(F)(F)F)cc2)n1
103	CCCCCCOC(=O)C1=C(C)NN=C(c2ccccc2)C1c1cccc(Cl)c1 (centres undefined)
166 to 168	CN(C)C(=O)COC[C@@H]1CC(c2ccc(-c3ccc(N4C[C@H](Cn5ccnn5)OC4=O)cc3F)cn2)=NO1
182	NC(N)=Nc1nc(-c2cccc(CNC(=O)CSCc3ccco3)n2)cs1
105	O=C(O)c1nc(-c2ccc(Cl)cc2Cl)c(-c2ccccc2)s1
209 to 210	Cn1cc(-c2cc3cccnc3[nH]2)c2cc(OCCO)ccc21
126 to 127	CCc1c(C#N)c(-c2ccc(C#N)cc2)c(C)n1Cc1cnc(Cl)c(CO)c1
187 to 188	C=CCN(C(=O)c1cnc(N2CC(C)(C)NC2=O)nc1N)c1cccc(C(F)(F)F)c1
121 to 123	O=C(O)C(=O)c1ccc(OCCSc2ccc3ccccc3c2)cc1
168 to 170	COc1ccc(C(=O)Nc2ccccc2)cc1NCc1cccc(O)c1
145	Fc1ccccc1NC(=S)NCc1ccncc1

melting point [°C]	SMILES
195 to 198	COc1ccc2c(n1)C1(CO2)C(=O)N(Cc2ncccc2C(F)(F)F)c2ccccc21 (centres undefined)
81 to 82	COc1cc(C(=O)CCCc2ccccc2)ccc1OCc1ccccc1
262 to 263	CC(C)(C)c1ccc(-c2ccc3c(C(N)=O)nn(-c4ccc(S(N)(=O)=O)cc4)c3c2)cc1
146 to 148	Cc1ccnc(C)c1Cn1nnnc1-c1cccc(Cl)c1Cl
150 to 151	O=C1C(Cc2ccccc2)C(C(F)(F)F)Nc2ccccc2N1Cc1ccccc1 (centres undefined)
167 to 168	NS(=O)(=O)c1ccc(-c2nc(C(F)(F)F)oc2-c2ccc(Cl)cc2)cc1
65.5 to 69	COc1ccc(C(=O)COc2ccc(NC3=NCCN3)cc2)cc1
121 to 122	COCCn1cc(C(=O)NCc2ccc(Cl)cc2)c(=O)c2cc(CN(C)C[C@@H](O)c3ccco3)sc21
225 to 227	CCCCc1ncc(C=C2C(=O)NC(=O)N2Cc2ccc(Cl)cc2)n1Cc1ccc(C(=O)O)cc1
91 to 93	c1ccc2c(c1)-c1sccc1C2Cc1ccncc1 (centres undefined)
116 to 118	CCOC(=O)c1cnn2c1c(OCC)nc1c(C)nn(C)c12
125	O=S(=O)(Nc1ccc(OCc2ccc3ccccc3n2)cc1)c1ccc(Cl)cc1
132 to 133	COC(=O)c1ncc(OCc2ccccn2)nc1NCc1ccc(OC)c(Cl)c1
146 to 148	CCn1nc(-c2ccc3cc(O)ccc3c2)c2ccc(O)cc21
294 to 297	CC(C)(C)c1ccccc1-n1c(=O)[nH]c2c(C(N)=O)nc(-c3cccc(O)c3)nc21
91 to 92	Cc1c(Cc2cccc(C(F)(F)F)c2)oc2cccc(O)c12
71 to 74	Fc1ccc2nccc(Cl)c2c1
118	Cc1cc(-n2cncn2)c2cccc(OCc3c(Cl)ccc(S(=O)(=O)N4CCC[C@H]4C(=O)NCC4CCN(Cc5ccccn5)CC4)c3Cl)c2n1
186	CC1(C)CCC(=O)Nc2ccc(Nc3ncc(Cl)c(Nc4ccccc4-c4ncccn4)n3)cc21
165 to 168	CC(=O)OCCN1C(=O)C(NC(=O)Nc2cccc(-c3nnn[nH]3)c2)N=C(C2CCCCC2)c2cccc(C)c21 (centres undefined)
181 to 182	C[C@@H](NC(=O)c1cnn(-c2ccc(Cl)cc2)c1N)[C@](O)(Cn1cncn1)c1ccc(F)cc1F

More lines, now with the values behind:

SMILES	melting point [°C]
COCC(=O)N[C@H]1CC[C@H](Nc2nccc(-n3nnc4ccccc43)n2)CC1	234 to 235
N#Cc1ccc(-c2c[nH]nc2C(F)(F)F)cc1SCC1CCC1	102 to 103
COc1cc(C=CC(=O)Nc2c(-c3ccccc3C)c3cc(Cl)c(C)cc3oc2=O)cc(OC)c1OC(C)=O	248 to 250
CCCN1C(=O)N2CCN=C2c2c1ncn2C	110 to 112
N#Cc1cccc2c1OCC2	54.5 to 56
Cc1ccc2c(c1)c(=O)c(S(C)=O)nn2C (centres undefined)	173 to 175
CC(=O)Nc1cccc(-n2cccc2)c1	134 to 136
C=CC(=O)OCCN(CCOC(=O)C=C)c1ccc(N=Nc2ccc([N+](=O)[O-])cc2)cc1	91 to 93
CCOC(=O)C1=C(C)NC(C)=C(C(=O)OC2CCCCC2)C1c1cccc([N+](=O)[O-])c1 (centres undefined)	135
CNC(=O)N(O)C(C)C#Cc1ccc(C)cc1 (centres undefined)	137 to 138
CC(C)(OCc1n[nH]c2ccccc12)C(=O)O	135 to 137
CC1CC(=O)NN=C1c1ccc2c(c1)N(C1CCCC1)C(=O)C(C)O2 (centres undefined)	220 to 223
O=C(Cl)C=CC=Cc1ccccc1	51 to 52
COc1ccc(C2=C(C#N)C(c3cccc4nsnc34)c3c[nH]nc3N2)cc1 (centres undefined)	238
Fc1cc(F)c2c(c1)CC(n1c(-c3nnn[nH]3)c[nH]c1=S)CC2 (centres undefined)	214 to 215
O=C1c2ccccc2C(=O)N1c1cc(CCl)ccn1	152 to 153
CC(CCCCOCCCc1ccc(N2CCCC2)cc1)NCC(O)c1cc(O)cc(O)c1 (centres undefined)	57 to 60
O=C1CCCCN1CCC(=O)N1CCC(C2c3ncc(Br)cc3CCc3cc(Cl)cc(Br)c32)CC1 (single isomer, unassigned; (+))	138 to 139
CC[C@H](Cn1cnnn1)n1cnc2cc3c(=O)n([C@H](CC)Cn4cnnn4)nnc3cc2c1=O	80 to 81

SMILES	melting point [°C]
CCC#CCCOc1ccc(/C=C/C(=O)Nc2ccccc2C(=O)O)cc1OC	165 to 166
CC(C)OC(=O)C1=C2SCC(=CC(=O)Sc3ccccc3)N2CC1	216 to 220
CCOC(=O)c1ncn2c1[C@@H]1CCCN1C(=O)c1c-2ccc(F)c1F	199 to 200
Oc1c2c(nc3ccc(C4CCCCC4)cc13)CCCC2	292 to 295
O=Cc1c(O)ccc2ncccc12	136 to 137
CCOC(=O)NCC(=O)c1ccc(OCC(=O)OC)cc1	128 to 129
O=c1ccc2cc(OC3CCC4(CCNCC4)CC3)ccc2o1	193 to 194
COc1ccc(Cn2c(=O)c(=NNc3ccccc3)c(=O)n(CC34CC5CC(CC(C5)C3)C4)c3ccccc32)cc1	170 to 188
CCOc1ccc(S(=O)(=O)N(CCO)c2ccccc2/C=C/c2ccncc2)cc1	167 to 169
O=[N+]([O-])c1cc(Cl)c(O)cc1OCCO	159
COc1ccc(-c2cc(F)cc3c2OC(CN)C3)c(OC)c1 (centres undefined)	141 to 143
CCC(C)(C)c1cc(C(C)(C)CC)c2c(c1)C1(O)C(=O)c3ccccc3C1(O)O2 (centres undefined)	195 to 222
COc1cc2cn(C3CCCCC3)nc2cc1OC	100 to 103
Cc1nc2[nH]c(=O)[nH]c2cc1-c1ccc([N+](=O)[O-])cc1	> 300
COc1ccc2c(C(=O)N(CC(=O)O)C(=O)N(C)C)cccc2c1C(F)(F)F	145 to 147
CCc1cc2c(s1)-n1c(C)nnc1C(CCCCC(=O)Nc1ccccc1)N=C2c1ccc(Cl)cc1 (centres undefined)	238 to 240
CC(C)(C)OC(=O)COC1CCN(C(=O)CC(=O)Nc2ccc(C(N)=NO)cc2)CC1	161 to 163
C=CCN1CCC2(c3cccc(O)c3)CCCC2C1 (centres undefined)	106 to 108
COc1ccccc1Sc1c(Cl)ncnc1Cl	103

SMILES	melting point [°C]
CC(CCO)N1CCC(Cc2ccccc2)CC1 (centres undefined)	74 to 76
CN(C)C(=O)c1cccc(NC(=O)Oc2ccccc2)c1	151 to 153
O=C(NCC1CCCCC1)c1c(Cl)ccc2nc(N3CC(NCCO)C3)ccc12	150 to 151
CCC(CC)Nc1cc(C)nc(Nc2c(C)cc(C)cc2C)c1N	213 to 216
CCCC1(O)CCN(C)C(Cc2ccc(OC)cc2)C1(C)C (centres undefined)	85 to 102
CCC(=C(c1ccccc1)c1ccc(C=CC(=O)OC)cc1)c1ccccc1	133 to 135
O=CNCC1=CNCN1[C@H]1CCc2c(F)cc(F)cc2C1	194 to 195
CC(=O)NNc1ccc([N+](=O)[O-])cc1	207 to 209
CCCCCCCCNC(=O)[C@@H]1C[C@H]1c1ccc([N+](=O)[O-])cc1 (relative stereo)	126 to 129
Cn1c(C(F)(F)F)cc(=O)n(-c2cc([N+](=O)[O-])c(C#N)cc2F)c1=O	155 to 157
O=NN1CCN(Cc2c[nH]c3ccccc23)CC1	116 to 118
CNc1nc2ccccc2c2[nH]c3ccccc3c12	146 to 147
O=C(Cl)c1cc(Br)c(C(=O)Cl)cc1Br	80 to 82
COc1ccc2cccc(C(CO)CNC(C)=O)c2c1 (centres undefined)	136 to 138
O=C(O)CCCCC(=O)Oc1ccc([N+](=O)[O-])cc1	104 to 105
CNC(=O)[C@@H]1CCCN1C(=O)[C@H](C)NC(=O)OCc1ccccc1	126 to 129
CC(C)(C)OC(=O)N1CCn2c(c(C(N)=S)c(Cl)c2-c2cccnc2)C1	220 to 221
O=C1N(Cc2cccc(C(F)(F)F)c2)c2ccccc2C12COc1cc3c(cc12)OCCO3 (centres undefined)	131 to 134
